# Results as given in PMC3480357, “Fragment-Hopping-Based Discovery of a Novel Chemical Series of Proto-Oncogene PIM-1 Kinase Inhibitors” (PLoS ONE, 2012).
# Where two headings read alike, the source gives them in different places.
# What was measured:
# [1] = Metabolic stability in liver microsomes (Mouse); assay type: in vitro ADME; conditions: 1 µM, 15 minutes
# [2] = Metabolic stability in liver microsomes (Rat); assay type: in vitro ADME; conditions: 1 µM, 15 minutes
# MEK1 = MEK1 (Homo sapiens, UniProt Q02750); test: ProQinase kinase panel, % inhibition at fixed concentration; assay type: biochemical; conditions: read-out: MEK1 percentage of inhibition
# Chain of MEK1 (Q02750 whole entry, species assumed): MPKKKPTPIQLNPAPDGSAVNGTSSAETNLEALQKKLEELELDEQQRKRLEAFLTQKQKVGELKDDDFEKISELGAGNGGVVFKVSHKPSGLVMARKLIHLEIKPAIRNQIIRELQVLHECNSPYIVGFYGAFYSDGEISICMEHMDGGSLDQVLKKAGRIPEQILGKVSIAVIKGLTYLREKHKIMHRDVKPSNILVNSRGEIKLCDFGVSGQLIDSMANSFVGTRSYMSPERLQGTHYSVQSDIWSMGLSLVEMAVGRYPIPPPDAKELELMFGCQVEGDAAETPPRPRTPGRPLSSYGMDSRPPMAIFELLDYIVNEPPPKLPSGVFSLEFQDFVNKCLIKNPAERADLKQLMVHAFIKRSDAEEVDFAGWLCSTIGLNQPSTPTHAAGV
# Protocol: (§1) Off-target selectivity profiling was also performed for compounds 3 and 8 against a panel of 20 kinases (Table 3). […] When taking the differences in screening concentrations into consideration, we can only make unequivocal conclusions about FLT3 (based on the IC50 determination). […] The slight improvement observed for the remainder of the screened targets was likely due to the difference in concentrations.
# IKK-β = IKK-β (Homo sapiens, UniProt O14920); test: as above; assay type: biochemical; conditions: average of two data points, read-out: IKK-β percentage of inhibition
# Chain of IKK-β (O14920 whole entry, species assumed): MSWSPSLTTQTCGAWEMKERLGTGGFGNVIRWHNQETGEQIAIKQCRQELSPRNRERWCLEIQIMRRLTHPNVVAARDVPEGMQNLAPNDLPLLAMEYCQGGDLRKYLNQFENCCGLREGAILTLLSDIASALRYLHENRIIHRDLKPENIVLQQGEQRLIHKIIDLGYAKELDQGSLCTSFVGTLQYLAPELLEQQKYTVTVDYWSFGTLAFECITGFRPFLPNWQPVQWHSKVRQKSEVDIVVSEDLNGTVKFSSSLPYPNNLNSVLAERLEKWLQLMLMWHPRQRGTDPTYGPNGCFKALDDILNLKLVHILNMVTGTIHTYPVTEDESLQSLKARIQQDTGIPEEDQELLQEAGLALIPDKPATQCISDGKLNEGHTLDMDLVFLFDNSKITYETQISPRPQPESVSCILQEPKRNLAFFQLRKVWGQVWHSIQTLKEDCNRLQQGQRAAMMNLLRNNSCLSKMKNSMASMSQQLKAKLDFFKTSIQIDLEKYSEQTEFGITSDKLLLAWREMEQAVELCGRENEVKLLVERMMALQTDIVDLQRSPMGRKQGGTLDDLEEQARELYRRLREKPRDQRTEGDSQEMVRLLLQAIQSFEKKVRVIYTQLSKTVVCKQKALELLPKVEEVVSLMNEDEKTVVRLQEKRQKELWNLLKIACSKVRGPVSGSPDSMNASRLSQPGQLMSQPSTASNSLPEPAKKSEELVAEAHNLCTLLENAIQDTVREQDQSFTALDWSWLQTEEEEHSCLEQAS
# Protocol: as §1
# FLT3 = molecular target: T1, FLT3 (Homo sapiens, UniProt P36888); test: FLT3 kinase ADP Hunter Plus assay; assay type: biochemical; conditions: for FLT3 experimental hit classification: hit definition IC50 < 10µM
# T1 construct: purchased Invitrogen PV3182
# T1 sequence (P36888 564-993 limits assumed): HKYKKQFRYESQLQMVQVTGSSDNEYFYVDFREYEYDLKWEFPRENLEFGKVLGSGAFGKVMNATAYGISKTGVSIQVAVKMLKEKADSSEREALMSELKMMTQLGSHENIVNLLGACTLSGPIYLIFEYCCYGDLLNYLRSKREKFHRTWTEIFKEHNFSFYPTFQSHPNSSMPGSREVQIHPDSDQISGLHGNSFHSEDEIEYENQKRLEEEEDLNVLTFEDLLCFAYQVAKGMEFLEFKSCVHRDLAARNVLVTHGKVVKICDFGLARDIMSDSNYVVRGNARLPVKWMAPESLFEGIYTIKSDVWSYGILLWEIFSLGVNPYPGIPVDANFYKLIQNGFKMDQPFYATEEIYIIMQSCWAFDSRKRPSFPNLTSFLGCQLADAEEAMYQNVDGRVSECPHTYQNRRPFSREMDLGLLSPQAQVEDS
# Protocol: Kinase activity was measured with the commercial ADP Hunter™ Plus assay (DiscoveRx Ref. #33-016), a homogeneous assay measuring ADP accumulation, as a universal product of kinase activity. The assay was conducted following the manufacturer’s recommendations and adapting the protein and substrate concentrations for optimal conditions. The kinase assay buffer was 15 mM HEPES, pH 7.4, 20 mM NaCl, 1 mM EGTA, 0.02% Tween-20, 10 mM MgCl2 and 0.1 mg/ml BGG (bovine γ-globulin). All PIM kinase assays were performed with 100 µM ABLtide ([…]) from GenScript as the peptide substrate and 100 µM ATP. Protein concentration (from Invitrogen, PV3182) was 0.4 ng/µl. To calculate the IC50 of the ETP-compounds, serial 1∶3 dilutions were prepared and the reaction was started with the addition of ATP. The reaction was incubated for 1 h at 37°C. Reagents A and B (DiscoveRx) were sequentially added to the wells, and the plates were incubated for 30 min at 25°C. Fluorescence counts were read in an EnVision 2104 Multilabel Reader (Perkin Elmer) with the recommended settings (544 and 580 nm as the excitation and emission wavelengths, respectively). Values were plotted against the inhibitor concentrations and fit to a sigmoid dose–response curve using ActivityBase software.
# [3] = Metabolic stability in liver microsomes (Human); assay type: in vitro ADME; conditions: for Met. Stab. (Human), percentage of the original compound that remained: 1 µM, liver microsomes, 15 minutes
# PIM-3 = PIM-3 (Homo sapiens, UniProt Q86V86); test: PIM-3 kinase ADP Hunter Plus assay; assay type: biochemical; conditions: 100 µM ATP
# Protocol: Kinase activity was measured with the commercial ADP Hunter™ Plus assay (DiscoveRx Ref. #33-016), a homogeneous assay measuring ADP accumulation, as a universal product of kinase activity. The assay was conducted following the manufacturer’s recommendations and adapting the protein and substrate concentrations for optimal conditions. The kinase assay buffer was 15 mM HEPES, pH 7.4, 20 mM NaCl, 1 mM EGTA, 0.02% Tween-20, 10 mM MgCl2 and 0.1 mg/ml BGG (bovine γ-globulin). All PIM kinase assays were performed with 100 µM PIMtide ([…]) as the peptide substrate and 100 µM ATP. The protein concentrations were 50, 350 and 500 ng/µl for PIM-1, 2 and 3, respectively. To calculate the IC50 of the ETP-compounds, serial 1∶5 dilutions were prepared and the reaction was started with the addition of ATP. The reaction was incubated for 1 h at 25°C. Reagents A and B (DiscoveRx) were sequentially added to the wells, and the plates were incubated for 30 min at 37°C. Fluorescence counts were read in a Victor instrument (Perkin Elmer) with the recommended settings (544 and 580 nm as the excitation and emission wavelengths, respectively). Values were plotted against the inhibitor concentrations and fit to a sigmoid dose–response curve using GraphPad software.
# PAMPA passive diffusion = assay type: in vitro ADME; conditions: LC/MS/MS after 4 hours of incubation at 2 µM; for Papp at 4 h, 2 µM: PAMPA, read-out: PAMPA Pe
# Protocol: Therefore, to obtain more detailed information on this critical point, preliminary in vitro ADME profiling was performed for molecule 3. This profiling was mainly focused on hERG activity and on pharmacokinetics parameters, such as metabolic stability and PAMPA (an in vitro model for passive diffusion).
# FAK = FAK (Homo sapiens, UniProt Q05397); test: ProQinase kinase panel, % inhibition at fixed concentration; assay type: biochemical
# Chain of FAK (Q05397 whole entry, species assumed): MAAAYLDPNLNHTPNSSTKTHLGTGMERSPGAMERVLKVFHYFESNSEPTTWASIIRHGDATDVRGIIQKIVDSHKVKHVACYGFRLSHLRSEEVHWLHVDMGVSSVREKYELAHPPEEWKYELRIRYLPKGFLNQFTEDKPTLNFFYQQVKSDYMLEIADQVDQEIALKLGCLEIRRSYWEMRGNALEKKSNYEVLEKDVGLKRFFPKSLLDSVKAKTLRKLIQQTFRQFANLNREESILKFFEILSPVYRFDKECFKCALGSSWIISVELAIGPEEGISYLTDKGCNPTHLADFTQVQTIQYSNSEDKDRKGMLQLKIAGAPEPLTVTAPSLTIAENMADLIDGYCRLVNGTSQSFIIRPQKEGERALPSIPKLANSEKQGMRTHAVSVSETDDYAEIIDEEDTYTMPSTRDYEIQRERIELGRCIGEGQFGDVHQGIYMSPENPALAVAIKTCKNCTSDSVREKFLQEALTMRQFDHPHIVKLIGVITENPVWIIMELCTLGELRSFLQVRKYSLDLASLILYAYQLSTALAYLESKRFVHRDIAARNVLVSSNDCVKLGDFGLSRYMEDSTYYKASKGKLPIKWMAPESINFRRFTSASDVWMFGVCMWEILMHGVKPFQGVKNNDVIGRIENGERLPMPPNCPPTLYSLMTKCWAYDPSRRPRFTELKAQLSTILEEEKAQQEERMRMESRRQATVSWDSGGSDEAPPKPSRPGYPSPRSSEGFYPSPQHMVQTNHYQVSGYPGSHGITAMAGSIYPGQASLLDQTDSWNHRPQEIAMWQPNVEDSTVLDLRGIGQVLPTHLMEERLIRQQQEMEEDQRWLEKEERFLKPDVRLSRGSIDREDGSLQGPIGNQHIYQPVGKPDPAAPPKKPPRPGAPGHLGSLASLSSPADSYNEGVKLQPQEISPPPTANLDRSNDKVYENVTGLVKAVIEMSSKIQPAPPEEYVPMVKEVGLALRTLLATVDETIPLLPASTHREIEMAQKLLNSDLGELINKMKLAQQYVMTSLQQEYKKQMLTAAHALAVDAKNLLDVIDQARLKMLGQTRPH
# KIT = KIT (Homo sapiens, UniProt P10721); test: as above; assay type: biochemical
# Chain of KIT (P10721 26-976, species assumed): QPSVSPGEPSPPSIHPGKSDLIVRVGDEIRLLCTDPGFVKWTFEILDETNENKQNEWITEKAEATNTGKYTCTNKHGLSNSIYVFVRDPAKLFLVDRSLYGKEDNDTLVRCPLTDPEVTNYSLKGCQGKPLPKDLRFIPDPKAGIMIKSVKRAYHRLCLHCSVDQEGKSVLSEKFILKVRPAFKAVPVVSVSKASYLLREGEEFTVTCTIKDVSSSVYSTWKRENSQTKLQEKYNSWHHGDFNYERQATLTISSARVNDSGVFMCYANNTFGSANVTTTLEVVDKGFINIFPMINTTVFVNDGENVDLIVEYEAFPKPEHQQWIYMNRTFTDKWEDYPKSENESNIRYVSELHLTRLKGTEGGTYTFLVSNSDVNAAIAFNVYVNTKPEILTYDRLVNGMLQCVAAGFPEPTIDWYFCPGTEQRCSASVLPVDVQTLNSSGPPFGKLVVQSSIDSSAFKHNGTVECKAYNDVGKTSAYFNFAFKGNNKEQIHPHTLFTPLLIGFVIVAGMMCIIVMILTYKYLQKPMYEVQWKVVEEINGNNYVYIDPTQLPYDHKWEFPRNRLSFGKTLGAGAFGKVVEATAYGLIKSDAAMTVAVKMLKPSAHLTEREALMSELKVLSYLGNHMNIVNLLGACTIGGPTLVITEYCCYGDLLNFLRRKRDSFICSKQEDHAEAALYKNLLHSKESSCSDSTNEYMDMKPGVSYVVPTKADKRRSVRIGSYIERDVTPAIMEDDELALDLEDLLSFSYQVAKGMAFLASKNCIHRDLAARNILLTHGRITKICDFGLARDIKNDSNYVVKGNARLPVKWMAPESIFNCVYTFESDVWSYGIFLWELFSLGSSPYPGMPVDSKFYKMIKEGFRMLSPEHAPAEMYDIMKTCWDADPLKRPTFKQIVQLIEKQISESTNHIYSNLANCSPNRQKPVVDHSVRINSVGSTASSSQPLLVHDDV
# PIM-2 = PIM-2 (Homo sapiens, UniProt Q9P1W9); test: PIM-2 kinase ADP Hunter Plus assay; assay type: biochemical; conditions: 100 µM ATP
# Chain of PIM-2 (Q9P1W9 whole entry): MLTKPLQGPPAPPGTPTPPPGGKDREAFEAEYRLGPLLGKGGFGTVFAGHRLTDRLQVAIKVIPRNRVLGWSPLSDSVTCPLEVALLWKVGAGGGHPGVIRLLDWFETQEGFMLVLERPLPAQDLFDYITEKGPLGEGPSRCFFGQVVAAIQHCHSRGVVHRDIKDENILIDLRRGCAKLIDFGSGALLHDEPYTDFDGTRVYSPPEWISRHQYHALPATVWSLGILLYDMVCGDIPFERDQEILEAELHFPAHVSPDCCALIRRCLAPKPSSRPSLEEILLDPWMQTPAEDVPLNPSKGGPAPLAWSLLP
# CK1-α1 = CK1-α1 (Homo sapiens, UniProt P48729); design: method as in PMID 21051136; conditions: 10 µM; average of two data points; cited from earlier work
# Chain of CK1-α1 (P48729 whole entry): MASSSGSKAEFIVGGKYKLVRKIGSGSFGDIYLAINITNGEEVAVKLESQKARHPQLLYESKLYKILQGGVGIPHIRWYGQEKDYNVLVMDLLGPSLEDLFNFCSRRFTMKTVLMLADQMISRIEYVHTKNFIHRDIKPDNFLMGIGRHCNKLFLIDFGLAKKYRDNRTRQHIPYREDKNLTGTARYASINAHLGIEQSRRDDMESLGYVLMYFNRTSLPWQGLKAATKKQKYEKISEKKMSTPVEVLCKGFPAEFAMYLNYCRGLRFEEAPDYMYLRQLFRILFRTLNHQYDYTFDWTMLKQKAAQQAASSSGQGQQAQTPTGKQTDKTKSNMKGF
# B-RAF-V600E = B-RAF-V600E (Homo sapiens, UniProt P15056, V600E); design: method as in PMID 21051136; conditions: 10 µM; average of two data points; cited from earlier work
# INS-R = INS-R (Homo sapiens, UniProt P06213); test: ProQinase kinase panel, % inhibition at fixed concentration; assay type: biochemical
# Chain of INS-R (P06213 980-1382 limits assumed, species assumed): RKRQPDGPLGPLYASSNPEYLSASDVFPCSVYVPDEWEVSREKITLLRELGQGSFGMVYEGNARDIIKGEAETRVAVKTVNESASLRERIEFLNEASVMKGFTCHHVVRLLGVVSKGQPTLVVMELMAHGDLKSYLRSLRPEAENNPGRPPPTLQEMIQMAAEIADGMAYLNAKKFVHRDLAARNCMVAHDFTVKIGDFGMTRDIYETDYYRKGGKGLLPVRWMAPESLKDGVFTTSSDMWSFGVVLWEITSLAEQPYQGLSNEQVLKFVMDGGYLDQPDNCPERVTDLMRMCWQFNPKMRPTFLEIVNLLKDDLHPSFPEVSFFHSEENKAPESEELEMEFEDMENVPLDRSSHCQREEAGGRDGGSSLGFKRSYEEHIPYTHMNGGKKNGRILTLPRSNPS
# Protocol: (§2) Once compounds 7 and 8 were synthesized, a pairwise comparison was performed to strictly evaluate the real impact of this fragment-hopping where imidazopyridazine is replaced by triazolopyridine.
# JNK1 = JNK1 (Homo sapiens, UniProt P45983); test: as above; assay type: biochemical
# Chain of JNK1 (P45983 whole entry, species assumed): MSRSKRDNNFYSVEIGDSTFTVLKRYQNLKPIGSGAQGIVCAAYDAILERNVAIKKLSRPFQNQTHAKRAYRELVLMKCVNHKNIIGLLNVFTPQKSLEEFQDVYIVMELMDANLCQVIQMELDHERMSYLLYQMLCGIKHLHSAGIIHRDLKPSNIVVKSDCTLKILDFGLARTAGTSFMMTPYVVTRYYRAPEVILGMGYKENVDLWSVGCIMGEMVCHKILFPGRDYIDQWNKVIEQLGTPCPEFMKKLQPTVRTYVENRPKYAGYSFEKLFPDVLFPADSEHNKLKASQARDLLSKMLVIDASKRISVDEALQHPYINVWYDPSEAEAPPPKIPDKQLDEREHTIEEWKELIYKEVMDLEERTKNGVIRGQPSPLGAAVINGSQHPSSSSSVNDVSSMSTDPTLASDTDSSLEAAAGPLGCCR
# Protocol: as §2
# [4] = hit definition % inhibition > 40, ligand at 5µM
# [5] = ADP Hunter Plus, 100 µM ATP, read-out: FLT-3 IC50
# [6] = compound 7 vs compound 1, 10 µM
compound,measurement,setting,value
"CN1CCC(CNc2ccc3ncc(-c4cccc(OC(F)(F)F)c4)n3n2)CC1 [Compound 3, reference compound]","Met. Stab. (Mouse), percentage of the original compound that remained",[1],5%
same,"Met. Stab. (Rat), percentage of the original compound that remained",[2],23%
same,inhibition at 10 µM,MEK1,11%
same,inhibition at 10 µM,IKK-β; inhibitor at 10 µM,0%
same,IC50,FLT3,5 nM
same,"Met. Stab. (Human), percentage of the original compound that remained",[3],31%
same,IC50,PIM-3,46 nM
same,"Papp at 4 h, 2 µM",PAMPA passive diffusion,0.0015 ×10⁻⁶ cm/s
"CN1CCC(CNc2ccc3nnn(-c4cccc(OC(F)(F)F)c4)c3n2)CC1 [Compound 8, (1-Methyl-piperidin-4-ylmethyl)-[3-(3-trifluoromethoxy-phenyl)-3H-[1], [2], [3]triazolo[4,5-b]pyridin-5-yl]-amine]","Met. Stab. (Mouse), percentage of the original compound that remained",[1],27%
same,"Met. Stab. (Rat), percentage of the original compound that remained",[2],35%
same,FAK experimental hit classification,FAK; [4],not a FAK hit
same,inhibition at 5 µM,"FAK; inhibitor at 5 µM, average of two data points, read-out: FAK percentage of inhibition",34%
same,inhibition at 5 µM,"MEK1; inhibitor at 5 µM, average of two data points",33%
same,inhibition at 5 µM,IKK-β; inhibitor at 5 µM,3%
same,IC50,FLT3; [5],1320 nM
same,FLT3 experimental hit classification,FLT3,hit
same,"Met. Stab. (Human), percentage of the original compound that remained",[3],77%
same,increase in metabolic stability in human liver microsomes,[3]; molecule 8 vs compound 3,more than 45%
same,KIT increment in percentage of inhibition,KIT; compound 8 (5 µM) versus compound 3 (10 µM),> 50%
same,KIT improvement in percentage of inhibition,KIT; compound 8 (5 µM) vs compound 3 (10 µM),c (This designation indicates that the improvement in percentage of inhibition was greater than 50%)
same,KIT experimental hit classification,KIT; [4],hit
same,inhibition at 5 µM,"KIT; inhibitor at 5 µM, average of two data points, read-out: KIT percentage of inhibition",44%
same,IC50,PIM-2,4950 nM
same,IC50,PIM-3,724 nM
same,PAMPA Pe,PAMPA passive diffusion,0.74 10^-6 cm/s
same,"Papp at 4 h, 2 µM",PAMPA passive diffusion,~1 ×10⁻⁶ cm/s
Oc1ccc(-c2cnc3ccc(NCc4ccc(F)cc4)nn23)cc1 [Compound 1],CK1-α1 percentage of inhibition,CK1-α1,33%
same,IC50,FLT3; [5],1 nM
same,B-RAF-V600E percentage of inhibition,B-RAF-V600E,54%
"Oc1ccc(-n2nnc3ccc(NCc4ccc(F)cc4)nc32)cc1 [Compound 7, 4-[5-(4-Fluoro-benzylamino)-[1], [2], [3]triazolo[4,5-b]pyridin-3-yl]-phenol]",inhibition at 10 µM,"FAK; inhibitor at 10 µM, average of two data points, read-out: FAK percentage of inhibition",38%
same,IC50,FLT3; [5],1840 nM
same,FLT3 experimental hit classification,FLT3,hit
same,INS-R improvement in percentage of inhibition,INS-R; [6],b (This designation indicates that the improvement in percentage of inhibition was equal or greater than 25%)
same,inhibition at 10 µM,"INS-R; inhibitor at 10 µM, average of two data points, read-out: INS-R percentage of inhibition",32%
same,JNK1 improvement in percentage of inhibition,JNK1; [6],c (This designation indicates that the improvement in percentage of inhibition was equal or greater than 50%)
same,inhibition at 10 µM,"JNK1; inhibitor at 10 µM, average of two data points, read-out: JNK1 percentage of inhibition",11%
same,KIT improvement in percentage of inhibition,KIT; [6],b (This designation indicates that the improvement in percentage of inhibition was equal or greater than 25%)
same,KIT experimental hit classification,"KIT; hit definition % inhibition > 50, ligand at 10µM",hit
same,inhibition at 10 µM,"KIT; inhibitor at 10 µM, average of two data points, read-out: KIT percentage of inhibition",51%
same,IC50,PIM-2,333 nM
same,IC50,PIM-3,51 nM
